Laboratory results from US20060292244A1, “Use of pvp-iodine liposomes for treatment of acne” (priority 2003, published 2006).

Test system: Human ciliated epithelium cells
Test: in-vitro ciliary activity / ciliary vibration test
Format: cell-based
Description: 1 test substance at a temperature of 37° C.

N=C(NCCCCCCNC(=N)NC(=N)Nc1ccc(Cl)cc1)NC(=N)Nc1ccc(Cl)cc1 [chlorohexidine solution, chlorohexidine]
ciliary activity / ciliary vibration: decrease
